From article PMC4948780, “PARP Inhibitors in Clinical Use Induce Genomic Instability in Normal Human Cells” (PLoS ONE, 2016)

Assays:
EBV-BL = experiment: Sister chromatid exchange (SCE) assay, BrdU differential staining; format: cell-based, human
Excerpt: (§1) Human mammary epithelial cell lines used included non-tumorigenic diploid MCF-10A, HMEC-hTERT and tumorigenic MDA-MB-468 (basal) and MCF-7 (luminal). […] Blood samples were obtained from normal donor participants. The participants provided written informed consent to IRB protocol #95–054 approved by the Institutional Review Board at MSKCC. The original signed consent is then sent to the research participant’s medical record and a copy of the consent is given to the participant. The EBV-transformed B-lymphocyte cell line (EBV-BL) was generated by transformation of peripheral blood mononuclear cells (PBMC) with the B95.8 strain of EBV, as previously described. Primary T cells were generated from PBMC from two normal donors by non-specific activation with phytohemagglutinin and cultured in RPMI1640 and human serum AB for 4–14 days before use. E14 mES cell line was provided by M. Hooper, Brca1^-/- 236.44 mES cell line was provided by B. H. Koller, Brca2^lex1/lex2 mES cell line was provided by P. Hasty and Lexicon Genetics. E14 wild-type, Brca1^-/- 236.44, and Brca2^lex1/lex2 mES cell lines were cultured in standard ES media. Brca1^-/- 236.44 cells express a BRCA1 peptide deleted for sequences encoded by exon 11 [52], while Brca2^lex1/lex2 cells express a BRCA2 peptide deleted for the terminal exon 27 [53]. Olaparib was synthesized in the MSKCC Organic chemistry core facility. Veliparib and BSI-201 were purchased from Chemie Tek. The compounds were dissolved in DMSO and PBS. For clonogenic survival assays, MCF-10A (1000 cells), HMEC-hTERT (1000 cells), MDA-MB-468 (1500 cells) and mouse ES cell (2000 cells) were seeded, vehicle control or inhibitors were added at the indicated concentration 24 hours after seeding and changed every three days for continuous treatment. At 7–14 days, colonies were fixed with methanol and stained with Giemsa. For EBV-BL (6 × 10^6) and primary T cells (3.6 × 10^6) were continuously exposed to the indicated concentration of drug for 10 days at 0.6 × 10^6 cells/ml. Viable cells were scored by trypan blue exclusion.
(§2) To prepare metaphase spreads, exponentially growing cells were treated with 0.1–0.3 μg/ml of colcemid for 1–6 hr. Cells were collected and incubated in hypotonic solution (0.56% KCl), fixed in methanol: acetic acid (3:1), spotted to slides and air-dried. To measure chromosomal aberrations, the slides were stained with 2% Giemsa/Sorensen’s buffer. To visualize SCEs, the doubling time for each cell type was determined. Cells were incubated with 10 μM BrdU for two cell cycles. After metaphase spreads were prepared, the slides were treated with 0.5 μg/ml Hoechst 33258. The slides were exposed to black light for 20–60 min, incubated at 60°C for 2 hr, and stained in 4–10% Giemsa/Sorensen’s buffer.

HMEC-hTERT [1] = experiment: as above; format: cell-based, human; settings: 1 μM, 30.5 hr
Excerpt: as §1, §2

MCF-10A = experiment: as above; format: cell-based, human
Excerpt: as §1, §2

MCF-7 = experiment: as above; format: cell-based, human; settings: 1 μM, 66.5 hr
Excerpt: as §1, §2

MDA-MB-468 [2] = experiment: as above; format: cell-based, human; settings: 1 μM, 40 hr
Excerpt: as §1, §2

primary T cell 1 = experiment: as above; format: cell-based, human; settings: 1 μM, 99 hr
Excerpt: as §1, §2

primary T cell 2 [3] = experiment: as above; format: cell-based, human; settings: 1 μM, 70 hr
Excerpt: as §1, §2

HMEC-hTERT [4] = experiment: Clonogenic survival assay; format: cell-based; settings: Homo sapiens, read-out: IC50 of olaparib, continuous exposure
Excerpt: as §1, with “Olaparib was synthesized in the MSKCC Organic chemistry core facility. Veliparib and BSI-201 were purchased from Chemie Tek. The compounds were dissolved in DMSO and PBS. For clonogenic survival assays, MCF-10A (1000 cells), HMEC-hTERT (1000 cells), MDA-MB-468 (1500 cells) and mouse ES cell (2000 cells) were seeded, vehicle control or inhibitors were added at the indicated concentration 24 hours after seeding and changed every three days for continuous treatment. At 7–14 days, colonies were fixed with methanol and stained with Giemsa. For EBV-BL (6 × 10^6) and primary T cells (3.6 × 10^6) were continuously exposed to the indicated concentration of drug for 10 days at 0.6 × 10^6 cells/ml.” left out

MDA-MB-468 [5] = experiment: Clonogenic survival assay; format: cell-based; settings: Homo sapiens, read-out: IC50 of olaparib, continuous exposure
Excerpt: as §1, with “Olaparib was synthesized in the MSKCC Organic chemistry core facility. Veliparib and BSI-201 were purchased from Chemie Tek. The compounds were dissolved in DMSO and PBS. For clonogenic survival assays, MCF-10A (1000 cells), HMEC-hTERT (1000 cells), MDA-MB-468 (1500 cells) and mouse ES cell (2000 cells) were seeded, vehicle control or inhibitors were added at the indicated concentration 24 hours after seeding and changed every three days for continuous treatment. At 7–14 days, colonies were fixed with methanol and stained with Giemsa. For EBV-BL (6 × 10^6) and primary T cells (3.6 × 10^6) were continuously exposed to the indicated concentration of drug for 10 days at 0.6 × 10^6 cells/ml.” left out

primary T cell 2 [6] = experiment: Survival, trypan blue exclusion test of cell viability; format: cell-based; settings: Homo sapiens, read-out: IC50 of olaparib, continuous exposure
Excerpt: as §1, with “Olaparib was synthesized in the MSKCC Organic chemistry core facility. Veliparib and BSI-201 were purchased from Chemie Tek. The compounds were dissolved in DMSO and PBS. For clonogenic survival assays, MCF-10A (1000 cells), HMEC-hTERT (1000 cells), MDA-MB-468 (1500 cells) and mouse ES cell (2000 cells) were seeded, vehicle control or inhibitors were added at the indicated concentration 24 hours after seeding and changed every three days for continuous treatment. At 7–14 days, colonies were fixed with methanol and stained with Giemsa. For EBV-BL (6 × 10^6) and primary T cells (3.6 × 10^6) were continuously exposed to the indicated concentration of drug for 10 days at 0.6 × 10^6 cells/ml.” left out

[7] = tested on: repair-proficient human cells; experiment: Chromatid-type aberrations, summary over the human cell types; format: cell-based
Procedure: as §2

human cells = experiment: Olaparib cytotoxicity on continuous exposure, summary over cell types; format: cell-based; settings: typical value over cell types
Excerpt: as §1, with “Olaparib was synthesized in the MSKCC Organic chemistry core facility. Veliparib and BSI-201 were purchased from Chemie Tek. The compounds were dissolved in DMSO and PBS. For clonogenic survival assays, MCF-10A (1000 cells), HMEC-hTERT (1000 cells), MDA-MB-468 (1500 cells) and mouse ES cell (2000 cells) were seeded, vehicle control or inhibitors were added at the indicated concentration 24 hours after seeding and changed every three days for continuous treatment. At 7–14 days, colonies were fixed with methanol and stained with Giemsa. For EBV-BL (6 × 10^6) and primary T cells (3.6 × 10^6) were continuously exposed to the indicated concentration of drug for 10 days at 0.6 × 10^6 cells/ml.” left out

**Q.** With `O=C(c1cc(Cc2n[nH]c(=O)c3ccccc23)ccc1F)N1CCN(C(=O)C2CC2)CC1` [olaparib] as the compound, how does the “Mean no. SCE / metaphase ± SD” value (EBV-BL; 0.1 μM) read?
**A.** 26.0 ± 6.4

**Q.** What about the “Mean no. SCE / metaphase ± SD” value (EBV-BL; 0.5 μM) of the same compound?
**A.** 36.2 ± 7.4

**Q.** What about the “Mean no. SCE / chromosome ± SD” value (EBV-BL; 1 μM, 87 hr) of the same compound?
**A.** 1.13 ± 0.23

**Q.** What about the “Mean no. SCE / metaphase ± SD” value (EBV-BL; 1 μM, 87 hr) of the same compound?
**A.** 51.6 ± 10.6

**Q.** And the “Mean no. SCE / chromosome ± SD” value (HMEC-hTERT [1])?
**A.** 1.30 ± 0.22

**Q.** What about the “Mean no. SCE / metaphase ± SD” value (HMEC-hTERT [1]) of the same compound?
**A.** 59.7 ± 10.0

**Q.** What about the “Mean no. SCE / metaphase ± SD” value (MCF-10A; 0.1 μM) of the same compound?
**A.** 33.0 ± 4.9

**Q.** What about the “Mean no. SCE / metaphase ± SD” value (MCF-10A; 0.5 μM) of the same compound?
**A.** 52.2 ± 9.8

**Q.** What about the “Mean no. SCE / chromosome ± SD” value (MCF-10A; 1 μM, 30 hr) of the same compound?
**A.** 1.57 ± 0.24

**Q.** What about the “Mean no. SCE / metaphase ± SD” value (MCF-10A; 1 μM, 30 hr) of the same compound?
**A.** 73.5 ± 10.9

**Q.** And the “Mean no. SCE / metaphase ± SD” value (MCF-7)?
**A.** 152.4 ± 21.9

**Q.** And the “Mean no. SCE / chromosome ± SD” value (MDA-MB-468 [2])?
**A.** 1.97 ± 0.38

**Q.** What about the “Mean no. SCE / metaphase ± SD” value (MDA-MB-468 [2]) of the same compound?
**A.** 107.9 ± 21.0

**Q.** And the “Mean no. SCE / chromosome ± SD” value (primary T cell 1)?
**A.** 0.90 ± 0.20

**Q.** What about the “Mean no. SCE / metaphase ± SD” value (primary T cell 1) of the same compound?
**A.** 41.3 ± 9.3

**Q.** And the “Mean no. SCE / chromosome ± SD” value (primary T cell 2 [3])?
**A.** 0.94 ± 0.21

**Q.** And the “Mean no. SCE / metaphase ± SD” value (primary T cell 2 [3])?
**A.** 43.0 ± 9.7

**Q.** And the IC50 (HMEC-hTERT [4])?
**A.** 5.5 µM

**Q.** What about the IC50 (MDA-MB-468 [5]) of the same compound?
**A.** 0.6 µM

**Q.** And the IC50 (primary T cell 2 [6])?
**A.** 2.7 µM

**Q.** What about the “increase of chromatid aberrations” value ([7]; clinically relevant doses (abstract)) of the same compound?
**A.** 2-6 fold

**Q.** And the radial chromosomes identified ([7]; olaparib-treated cells, all cell types (1 in untreated))?
**A.** 12

**Q.** And the IC50 (human cells)?
**A.** > 2 µM
